According to patent publication US12617783B2, “Heterocyclic GLP-1R agonists” (BIOMEA FUSION, INC., priority 2024, dated 2026):

Biological target: T1, human GLP-1R (Homo sapiens, UniProt P43220)
T1 construct: host or cells: HEK293
Assay: GLP-1R cAMP assay (Example B1a, HTRF, 30 min at room temperature)
Format: cell-based
Conditions: Table 1d, stereoisomer pairs; read-out: EC50
Summary of the method: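 Competitive HTRF read-out of cAMP after 30 min room-temperature stimulation, BETP absent, of human GLP-1R-HEK293 cells (1,000/well) in HEPES buffer with 500 μM IBMX and 0.1% BSA. Activation normalised to GLP-1(7-37) positive control. EC50 from 4-parameter non-linear regression.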

T1 sequence (P43220 24-463): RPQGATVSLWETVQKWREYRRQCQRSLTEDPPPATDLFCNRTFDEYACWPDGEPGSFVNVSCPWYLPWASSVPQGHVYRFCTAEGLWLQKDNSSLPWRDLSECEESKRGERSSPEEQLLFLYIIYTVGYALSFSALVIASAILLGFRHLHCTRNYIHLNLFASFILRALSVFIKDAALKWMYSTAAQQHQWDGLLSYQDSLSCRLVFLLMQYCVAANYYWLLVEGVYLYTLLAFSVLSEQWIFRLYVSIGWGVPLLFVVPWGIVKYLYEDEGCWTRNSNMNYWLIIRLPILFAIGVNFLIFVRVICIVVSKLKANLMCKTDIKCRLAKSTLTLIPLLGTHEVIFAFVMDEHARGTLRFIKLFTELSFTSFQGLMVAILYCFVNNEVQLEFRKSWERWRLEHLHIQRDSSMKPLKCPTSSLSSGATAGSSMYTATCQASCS

Row | SMILES | EC50 [nM]
1 | Cc1cc(-n2nc3c(c2-n2ccn(-c4ccc5c(cnn5C)c4F)c2=O)[C@H]2CC[C@@H](C3)N2C(=O)c2cc3cc([C@H]4CCOC5(CC5)C4)ccc3n2[C@@]2(c3noc(=O)[nH]3)C[C@@H]2C)cc(C)c1F [Compound 411, 3-((1S,2S)-1-(2-((4R,7S)-3-(3-(4-fluoro-1-methyl-1H-indazol-5-yl)-2-oxo-2,3-dihydro-1H-imidazol-1-yl)-2-(4-fluoro-3,5-dimethylphenyl)-2,4,5,6,7,8-hexahydro-4,7-epiminocyclohepta [c]pyrazole-9-carbonyl)-5-((S)-4-oxaspiro[2.5]octan-7-yl)-1H-indol-1-yl)-2-methylcyclopropyl)-1,2,4-oxadiazol-5 (4H)-one] | 652

Same assay, conditions: cAMP accumulation in HEK293 expressing human GLP-1R, no BETP, 30 min room temperature (Method B1a, compounds ID 1-609), Table 1; read-out: EC50

Row | SMILES | EC50 [nM]
2 | Cc1cc(-n2nc3c(c2-n2ccn(-c4ccc5c(cnn5C)c4F)c2=O)[C@H]2CC[C@@H](C3)N2C(=O)c2cc3cc([C@H]4CCOC5(CC5)C4)ccc3n2[C@@]2(c3noc(=O)[nH]3)C[C@@H]2C)cc(C)c1F [Compound 411, 3-((1S,2S)-1-(2-((4R,7S)-3-(3-(4-fluoro-1-methyl-1H-indazol-5-yl)-2-oxo-2,3-dihydro-1H-imidazol-1-yl)-2-(4-fluoro-3,5-dimethylphenyl)-2,4,5,6,7,8-hexahydro-4,7-epiminocyclohepta [c]pyrazole-9-carbonyl)-5-((S)-4-oxaspiro[2.5]octan-7-yl)-1H-indol-1-yl)-2-methylcyclopropyl)-1,2,4-oxadiazol-5 (4H)-one] | 652
3 | Cc1cc(-n2nc3c(c2-c2ncn(-c4ccc5c(cnn5C)c4F)c2C)[C@H](C)N(C(=O)c2cc4cc(N5CCS(=O)(=O)CC5)ccc4n2C2(c4noc(=O)[nH]4)CC2)CC3)cc(C)c1F [Compound 108, 3-[1-[5-(1,1-dioxo-1,4-thiazinan-4-yl)-2-[(4S)-2-(4-fluoro-3,5-dimethyl-phenyl)-3-[1-(4-fluoro-1-methyl-indazol-5-yl)-5-methyl-imidazol-4-yl]-4-methyl-6,7-dihydro-4H-pyrazolo[4,3-c]pyridine-5-carbonyl]indol-1-yl]cyclopropyl]-4H-1,2,4-oxadiazol-5-one] | > 10000
4 | Cc1cc(-n2nc3c(c2-n2ccn(-c4ccc5c(cnn5C)c4F)c2=O)[C@@H]2CC[C@H](C3)N2C(=O)c2cc3cc(N4CC(C)(C)C=CC4=O)ccc3n2[C@@]2(c3noc(=O)[nH]3)C[C@@H]2C)cc(C)c1F [Compound 510] | ≥ 10000
5 | Cc1cc(-n2nc3c(c2N2CCN(c4ccc5c(cnn5C)c4F)C(=O)C2=O)[C@H](C)N(C(=O)c2cc4cc([C@H]5CCOC(C)(C)C5)ccc4n2[C@@]2(c4noc(=O)[nH]4)C[C@@H]2C)CC3)cc(C)c1F [Compound 28, 1-((S)-5-(5-((S)-2,2-dimethyltetrahydro-2H-pyran-4-yl)-1-((1S,2S)-2-methyl-1-(5-oxo-4,5-dihydro-1,2,4-oxadiazol-3-yl)cyclopropyl)-1H-indole-2-carbonyl)-2-(4-fluoro-3,5-dimethylphenyl)-4-methyl-4,5,6,7-tetrahydro-2H-pyrazolo[4,3-c]pyridin-3-yl)-4-(4-fluoro-1-methyl-1H-indazol-5-yl) piperazine-2,3-dione] | > 10000
6 | Cc1cc(-n2nc3c(c2-n2ccn(-c4ccc5c(cnn5C)c4F)c2=O)[C@@H]2CC[C@H](C3)N2C(=O)c2cc3cc([C@H]4CCOC(C)(C)C4)ccc3n2C(=O)c2noc(=O)[nH]2)cc(C)c1F [Compound 122, 3-[5-[(4S)-2,2-dimethyltetrahydropyran-4-yl]-2-[(1S,8R)-4-(4-fluoro-3,5-dimethyl-phenyl)-3-[3-(4-fluoro-1-methyl-indazol-5-yl)-2-oxo-imidazol-1-yl]-4,5,11-triazatricyclo[6.2.1.02,6]undeca-2,5-diene-11-carbonyl]indole-1-carbonyl]-4H-1,2,4-oxadiazol-5-one] | > 10000
7 | Cc1cc(-n2nc3c(c2-n2ccn(-c4ccc5c(cnn5C)c4F)c2=O)[C@@H]2CCC[C@H](C3)N2C(=O)c2c(C)c3cc([C@H]4CCOC(C)(C)C4)ccc3n2[C@@]2(c3noc(=O)[nH]3)C[C@@H]2C)cc(C)c1F [Compound 537, 3-[(1S,2S)-1-[5-[(4S)-2,2-dimethyltetrahydropyran-4-yl]-2-[(1S,8R)-4-(4-fluoro-3,5-dimethyl-phenyl)-3-[3-(4-fluoro-1-methyl-indazol-5-yl)-2-oxo-imidazol-1-yl]-4,5,12-triazatricyclo[6.3.1.02,6]dodeca-2,5-diene-12-carbonyl]-3-methyl-indol-1-yl]-2-methyl-cyclopropyl]-4H-1,2,4-oxadiazol-5-one] | 1340
8 | Cc1cc(-n2nc3c(c2-n2ccn(-c4ccc5c(cnn5C)c4F)c2=O)[C@@H]2CCC[C@H](C3)N2C(=O)c2cc3cc([C@H]4CCOC5(CC5)C4)ccc3n2[C@@]2(c3noc(=O)[nH]3)C[C@@H]2C)cc(C)c1F [Compound 509, 3-((1S,2S)-1-(2-((4S,8R)-3-(3-(4-fluoro-1-methyl-1H-indazol-5-yl)-2-oxo-2,3-dihydro-1H-imidazol-1-yl)-2-(4-fluoro-3,5-dimethylphenyl)-4,5,6,7,8,9-hexahydro-2H-4,8-epiminocycloocta [c]pyrazole-10-carbonyl)-5-((S)-4-oxaspiro[2.5]octan-7-yl)-1H-indol-1-yl)-2-methylcyclopropyl)-1,2,4-oxadiazol-5 (4H)-one] | 134

The next lines start with the values.

Row | EC50 [nM] | SMILES
9 | 14.7 | Cc1cc(-n2nc3c(c2-n2ccn(-c4ccc5cnncc5c4F)c2=O)[C@@H]2CC[C@H](C3)N2C(=O)c2cc3cc([C@H]4CCOC(C)(C)C4)ccc3n2[C@@]2(c3noc(=O)[nH]3)C[C@@H]2C)cc(C)c1F [Compound 410, 3-((1S,2S)-1-(5-((S)-2,2-dimethyltetrahydro-2H-pyran-4-yl)-2-((4S,7R)-2-(4-fluoro-3,5-dimethylphenyl)-3-(3-(5-fluorophthalazin-6-yl)-2-oxo-2,3-dihydro-1H-imidazol-1-yl)-2,4,5,6,7,8-hexahydro-4,7-epiminocyclohepta [c]pyrazole-9-carbonyl)-1H-indol-1-yl)-2-methylcyclopropyl)-1,2,4-oxadiazol-5 (4H)-one]
10 | 907 | Cc1cc(-n2nc3c(c2-n2ccn(-c4ccc5c(cnn5C)c4F)c2=O)[C@@H]2CC[C@H](C3)N2C(=O)c2cc3nc([C@H]4CCOC(C)(C)C4)ccc3n2[C@@]2(c3noc(=O)[nH]3)C[C@@H]2C)cc(C)c1F [Compound 217, 3-[(1S,2S)-1-[5-[(4S)-2,2-dimethyltetrahydropyran-4-yl]-2-[(1S,8R)-4-(4-fluoro-3,5-dimethyl-phenyl)-3-[3-(4-fluoro-1-methyl-indazol-5-yl)-2-oxo-imidazol-1-yl]-4,5,11-triazatricyclo[6.2.1.02,6]undeca-2,5-diene-11-carbonyl]pyrrolo[3,2-b]pyridin-1-yl]-2-methyl-cyclopropyl]-4H-1,2,4-oxadiazol-5-one]
11 | 3870 | CC[C@@H]1C[C@@]1(c1noc(=O)[nH]1)n1c(C(=O)N2[C@@H]3CC[C@H]2c2c(nn(-c4cc(C)c(F)c(C)c4)c2-n2ccn(-c4ccc5c(cnn5C)c4F)c2=O)C3)cc2cc([C@H]3CCOC(C)(C)C3)ccc21 [Compound 435, 3-[(1R,2R)-1-[5-[(4S)-2,2-dimethyltetrahydropyran-4-yl]-2-[(1S,8R)-4-(4-fluoro-3,5-dimethyl-phenyl)-3-[3-(4-fluoro-1-methyl-indazol-5-yl)-2-oxo-imidazol-1-yl]-4,5,11-triazatricyclo[6.2.1.02,6]undeca-2,5-diene-11-carbonyl]indol-1-yl]-2-ethyl-cyclopropyl]-4H-1,2,4-oxadiazol-5-one]
12 | 182 | Cc1cc(-n2nc3c(c2-n2ccn(-c4ccc5c(cnn5C)c4F)c2=O)[C@@H]2CC[C@H](C3)N2C(=O)c2cc3cc(C4CCOCC4)ccc3n2[C@@]2(c3noc(=O)[nH]3)C[C@@H]2C)cc(C)c1F [Compound 208, 3-((1S,2S)-1-(2-((4S,7R)-3-(3-(4-fluoro-1-methyl-1H-indazol-5-yl)-2-oxo-2,3-dihydro-1H-imidazol-1-yl)-2-(4-fluoro-3,5-dimethylphenyl)-2,4,5,6,7,8-hexahydro-4,7-epiminocyclohepta [c]pyrazole-9-carbonyl)-5-(tetrahydro-2H-pyran-4-yl)-1H-indol-1-yl)-2-methylcyclopropyl)-1,2,4-oxadiazol-5 (4H)-one]

Same assay, conditions: text to Table 1d, bridge atoms configured out of the plane or toward the reader

Row | SMILES | potency
13 | Cc1cc(-n2nc3c(c2-n2ccn(-c4ccc5c(cnn5C)c4F)c2=O)[C@H]2CC[C@@H](C3)N2C(=O)c2cc3cc([C@H]4CCOC5(CC5)C4)ccc3n2[C@@]2(c3noc(=O)[nH]3)C[C@@H]2C)cc(C)c1F [Compound 411, 3-((1S,2S)-1-(2-((4R,7S)-3-(3-(4-fluoro-1-methyl-1H-indazol-5-yl)-2-oxo-2,3-dihydro-1H-imidazol-1-yl)-2-(4-fluoro-3,5-dimethylphenyl)-2,4,5,6,7,8-hexahydro-4,7-epiminocyclohepta [c]pyrazole-9-carbonyl)-5-((S)-4-oxaspiro[2.5]octan-7-yl)-1H-indol-1-yl)-2-methylcyclopropyl)-1,2,4-oxadiazol-5 (4H)-one] | little or no potency
